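A five-concentration, 48-hour dose response in 96-well plates underlies each endpoint, interpolated linearly between surrounding concentrations. The concentration for 50% growth inhibition is given as GI50. Definition used: TGI = concentration required for complete inhibition of growth.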
Assays:
Test in all cases: NCI-60 cell line screen, 48 h
SF-295 CNS = tested on: SF-295 CNS
UACC-257 melanoma = tested on: UACC-257 melanoma
HCT-116 colon = tested on: HCT-116 colon
SF-268 CNS = tested on: SF-268 CNS
M14 melanoma = tested on: M14 melanoma
SF-539 CNS = tested on: SF-539 CNS
OVCAR-8 ovarian = tested on: OVCAR-8 ovarian
OVCAR-4 ovarian = tested on: OVCAR-4 ovarian
SNB-75 CNS = tested on: SNB-75 CNS
K-562 leukemia = tested on: K-562 leukemia
HL-60(TB) leukemia = tested on: HL-60(TB) leukemia
HCT-15 colon = tested on: HCT-15 colon
UACC-62 melanoma = tested on: UACC-62 melanoma
TK-10 renal = tested on: TK-10 renal
SNB-19 CNS = tested on: SNB-19 CNS
NCI-H460 lung = tested on: NCI-H460 lung
MDA-MB-435 = tested on: MDA-MB-435
U251 CNS = tested on: U251 CNS
T-47D breast = tested on: T-47D breast
BT-549 breast = tested on: BT-549 breast
OVCAR-3 ovarian = tested on: OVCAR-3 ovarian
HS 578T breast = tested on: HS 578T breast
LOX IMVI melanoma = tested on: LOX IMVI melanoma
IGROV1 ovarian = tested on: IGROV1 ovarian
786-0 renal = tested on: 786-0 renal
CCRF-CEM leukemia = tested on: CCRF-CEM leukemia
SK-OV-3 ovarian = tested on: SK-OV-3 ovarian
NCI-H23 lung = tested on: NCI-H23 lung
HT29 colon = tested on: HT29 colon
PC-3 prostate = tested on: PC-3 prostate
MALME-3M melanoma = tested on: MALME-3M melanoma
SW-620 colon = tested on: SW-620 colon
MCF7 breast = tested on: MCF7 breast
NCI-H522 lung = tested on: NCI-H522 lung
A549 NSCLC = tested on: A549 NSCLC
MDA-MB-468 breast = tested on: MDA-MB-468 breast
MOLT-4 leukemia = tested on: MOLT-4 leukemia
ACHN renal = tested on: ACHN renal
RXF 393 renal = tested on: RXF 393 renal
SK-MEL-5 melanoma = tested on: SK-MEL-5 melanoma
SK-MEL-28 melanoma = tested on: SK-MEL-28 melanoma
NCI-H226 lung = tested on: NCI-H226 lung
SK-MEL-2 melanoma = tested on: SK-MEL-2 melanoma
HCC-2998 colon = tested on: HCC-2998 colon
UO-31 renal = tested on: UO-31 renal
RPMI-8226 leukemia = tested on: RPMI-8226 leukemia
CAKI-1 renal = tested on: CAKI-1 renal
MDA-MB-231 breast = tested on: MDA-MB-231 breast
EKVX NSCLC = tested on: EKVX NSCLC
OVCAR-5 ovarian = tested on: OVCAR-5 ovarian
SR leukemia = tested on: SR leukemia
HOP-92 NSCLC = tested on: HOP-92 NSCLC
A498 renal = tested on: A498 renal
KM12 colon = tested on: KM12 colon
HOP-62 NSCLC = tested on: HOP-62 NSCLC
DU-145 prostate = tested on: DU-145 prostate
COLO 205 colon = tested on: COLO 205 colon

`N#C[Se]CC(=O)Nc1cccc(C(F)(F)F)c1` gave a GI50 (SF-295 CNS) of 2.04 µM, a TGI (SF-295 CNS) of 4.1 µM and a GI50 (UACC-257 melanoma) of 3.1 µM. The TGI (UACC-257 melanoma) was 19.9 µM, the GI50 (HCT-116 colon) was 1.92 µM and the TGI (HCT-116 colon) was 4.16 µM. The GI50 (SF-268 CNS) was 3.16 µM, the TGI (SF-268 CNS) was 12.2 µM and the GI50 (M14 melanoma) was 1.9 µM. The TGI (M14 melanoma) was 5.02 µM, the GI50 (SF-539 CNS) was 1.78 µM and the TGI (SF-539 CNS) was 3.25 µM. For the same molecule, the GI50 (OVCAR-8 ovarian) was 2.01 µM, the TGI (OVCAR-8 ovarian) was 4.48 µM and the GI50 (OVCAR-4 ovarian) was 5.93 µM. The TGI (OVCAR-4 ovarian) was 62 µM, the GI50 (SNB-75 CNS) was 1.72 µM and the TGI (SNB-75 CNS) was 5.26 µM. It also gave a GI50 (K-562 leukemia) of 6.02 µM, a TGI (K-562 leukemia) greater than 100 µM and a GI50 (HL-60(TB) leukemia) of 2.22 µM. For the same molecule, the TGI (HL-60(TB) leukemia) was 6.31 µM, the GI50 (HCT-15 colon) was 1.72 µM and the TGI (HCT-15 colon) was 3.31 µM. For the same molecule, the GI50 (UACC-62 melanoma) was 1.73 µM, the TGI (UACC-62 melanoma) was 4.33 µM and the GI50 (TK-10 renal) was 2.55 µM. It also gave a TGI (TK-10 renal) of 6.79 µM, a GI50 (SNB-19 CNS) of 1.86 µM and a TGI (SNB-19 CNS) of 4.08 µM. For the same molecule, the GI50 (NCI-H460 lung) was 2.47 µM, the TGI (NCI-H460 lung) was 9.83 µM and the GI50 (MDA-MB-435) was 1.95 µM. For the same molecule, the TGI (MDA-MB-435) was 4.35 µM, the GI50 (U251 CNS) was 2.13 µM and the TGI (U251 CNS) was 5.52 µM. For the same molecule, the GI50 (T-47D breast) was 6.48 µM, the TGI (T-47D breast) was 86.6 µM and the GI50 (BT-549 breast) was 1.57 µM. The TGI (BT-549 breast) was 3.05 µM, the GI50 (OVCAR-3 ovarian) was 2.33 µM and the TGI (OVCAR-3 ovarian) was 7.21 µM. The GI50 (HS 578T breast) was 2.46 µM, the TGI (HS 578T breast) was 9.3 µM and the GI50 (LOX IMVI melanoma) was 1.49 µM. The TGI (LOX IMVI melanoma) was 3.21 µM, the GI50 (IGROV1 ovarian) was 1.55 µM and the TGI (IGROV1 ovarian) was 3.57 µM. It also gave a GI50 (786-0 renal) of 2.25 µM, a TGI (786-0 renal) of 4.92 µM and a GI50 (CCRF-CEM leukemia) of 4.34 µM. The TGI (CCRF-CEM leukemia) was 34.6 µM, the GI50 (SK-OV-3 ovarian) was 8.34 µM and the TGI (SK-OV-3 ovarian) was 31.9 µM. It also gave a GI50 (NCI-H23 lung) of 2.25 µM, a TGI (NCI-H23 lung) of 5.59 µM and a GI50 (HT29 colon) of 3.66 µM. It also gave a TGI (HT29 colon) of 15.2 µM, a GI50 (PC-3 prostate) of 5.77 µM and a TGI (PC-3 prostate) of 31 µM. It also gave a GI50 (MALME-3M melanoma) of 1.51 µM, a TGI (MALME-3M melanoma) of 3.24 µM and a GI50 (SW-620 colon) of 2.41 µM. The TGI (SW-620 colon) was 5.55 µM, the GI50 (MCF7 breast) was 2.72 µM and the TGI (MCF7 breast) was 20 µM. The GI50 (NCI-H522 lung) was 3.62 µM, the TGI (NCI-H522 lung) was 14.5 µM and the GI50 (A549 NSCLC) was 1.87 µM. For the same molecule, the TGI (A549 NSCLC) was 4.27 µM, the GI50 (MDA-MB-468 breast) was 1.71 µM and the TGI (MDA-MB-468 breast) was 3.44 µM. For the same molecule, the GI50 (MOLT-4 leukemia) was 3.77 µM, the TGI (MOLT-4 leukemia) was 26.2 µM and the GI50 (ACHN renal) was 3.29 µM. It also gave a TGI (ACHN renal) of 9.98 µM, a GI50 (RXF 393 renal) of 2.37 µM and a TGI (RXF 393 renal) of 6.01 µM. For the same molecule, the GI50 (SK-MEL-5 melanoma) was 1.19 µM, the TGI (SK-MEL-5 melanoma) was 2.78 µM and the GI50 (SK-MEL-28 melanoma) was 2.01 µM. The TGI (SK-MEL-28 melanoma) was 5.07 µM, the GI50 (NCI-H226 lung) was 1.78 µM and the TGI (NCI-H226 lung) was 4.74 µM. The GI50 (SK-MEL-2 melanoma) was 9.03 µM, the TGI (SK-MEL-2 melanoma) was 47.8 µM and the GI50 (HCC-2998 colon) was 13.7 µM. The TGI (HCC-2998 colon) was 29.5 µM, the GI50 (UO-31 renal) was 1.3 µM and the TGI (UO-31 renal) was 2.65 µM. For the same molecule, the GI50 (RPMI-8226 leukemia) was 18.3 µM, the TGI (RPMI-8226 leukemia) was 86.7 µM and the GI50 (CAKI-1 renal) was 2.23 µM. It also gave a TGI (CAKI-1 renal) of 4.77 µM, a GI50 (MDA-MB-231 breast) of 1.85 µM and a TGI (MDA-MB-231 breast) of 3.67 µM. It also gave a GI50 (EKVX NSCLC) of 1.46 µM, a TGI (EKVX NSCLC) of 2.94 µM and a GI50 (OVCAR-5 ovarian) of 2.69 µM. It also gave a TGI (OVCAR-5 ovarian) of 7.17 µM, a GI50 (SR leukemia) of 5.35 µM and a TGI (SR leukemia) greater than 100 µM. For the same molecule, the GI50 (HOP-92 NSCLC) was 1.84 µM, the TGI (HOP-92 NSCLC) was 3.63 µM and the GI50 (A498 renal) was 3.95 µM. For the same molecule, the TGI (A498 renal) was 17.7 µM, the GI50 (KM12 colon) was 6.87 µM and the TGI (KM12 colon) was 33.8 µM. The GI50 (HOP-62 NSCLC) was 3.41 µM, the TGI (HOP-62 NSCLC) was 9.67 µM and the GI50 (DU-145 prostate) was 1.9 µM. It also gave a TGI (DU-145 prostate) of 4.32 µM, a GI50 (COLO 205 colon) of 10.1 µM and a TGI (COLO 205 colon) of 24.3 µM.

Reference: PubChem BioAssay (NCI)
